Values of other authors as cited in patent US20110311626A1, “CONTROLLED RELEASE COMPOSITIONS COMPRISING ANTI-CHOLINERGIC DRUGS” (priority 2009, published 2011).

Settings: currently marketed formulation, blood plasma, after administration

Compound: CCN(CC)CCOC(=O)C1(C2CCCCC2)CCCCC1 [dicyclomine, bicyclohexyl-1-carboxylic acid, 2-(diethylamino) ethyl ester]
- Tmax: 1.5 to 3 h
